Earlier results in patent US9045800B2, “Methods and compositions for identifying, classifying and monitoring subject having Bcl-2 family inhibitor-resistant tumors and cancers” (AbbVie Inc., priority 2009, dated 2015).

Tests used:
[1] = tested on: human cancer cell lines (SCLC and lymphoma cell lines)
solid tumors = details: literature statement, no dose or model printed

**Q.** For CN(C)CC[C@H](CSc1ccccc1)Nc1ccc(S(=O)(=O)NC(=O)c2ccc(N3CCN(Cc4ccccc4-c4ccc(Cl)cc4)CC3)cc2)cc1[N+](=O)[O-] [ABT-737, N-(4-(4-((4′-chloro(1,1′-biphenyl)-2-yl)methyl)piperazin-1-yl)benzoyl)-4-(((1R)-3-(dimethylamino)-1-((phenylsulfanyl)methyl)propyl)amino)-3-nitrobenzenesulfonamide], which “potency against a diverse panel of human cancer cell lines” value [1] is on record?
**A.** selective potency against SCLC and lymphoma cell lines

**Q.** What about the “effect on solid tumors” value (solid tumors) of the same compound?
**A.** induce regression of solid tumors
